Assay results taken from paper PMC9182007, “Statistical Methods in the Study of Protein Binding and Its Relationship to Drug Bioavailability in Breast Milk” (Molecules, 2022).
Like-named read-outs stand apart in the source and are kept apart here.

What was measured:
[1] = target: T1, human serum albumin (HSA) (Homo sapiens, UniProt P02768); assay: in vitro; conditions: immobilized hsa column, pH 7.4
Method: (§1) High performance liquid chromatography was performed using immobilized human serum albumin column (HPLCHSA) and immobilized artificial membrane (HPLCIAM). HPLC was the source of the log k values (logarithm of retention factor), log kHSA and log kIAM.
(§2) High performance liquid chromatography was performed using a chromatography column with immobilized human serum albumin. The assay was performed on a Perkin Elmer Series 200 instrument connected to a UV-VIS spectrometer as detector. The analytical wavelength was the same for all compounds at 210 nm. […] The acetate buffer was prepared by dissolving 0.77 g of ammonium acetate in 1 L of distilled water. The pH was then adjusted with a concentrated ammonia solution using a pH meter.
(§3) The phase flow through the system was set to 0.9 mL/min as recommended by the column manufacturer. The solutions were delivered to the column using an autosampler syringe, the injection size was 10 µL. Since the column could not be thermostated, the room was kept at a constant temperature of 25 degrees Celsius.
(§4) Chromatographic data (retention coefficient, k, and derivative, log k) were obtained with TotalChrom software connected to an HPLC instrument. […] The experiment was then repeated and the collected retention rates were the mean values of both series.

[2] = target: T2, bovine serum albumin (BSA) (Bos taurus, UniProt P02769); assay: NP TLC on plates impregnated with bovine serum albumin; assay type: binding; conditions: for NP (Rf, BSA-impregnated NP plate): Table S3, NP plate impregnated with 2 mg/mL BSA, pH 7.4 mobile phase; for NP (Rf value from the NP plate impregnated with 2 mg/mL BSA solution): Table S8, external group
T2 construct: purchased Sigma Aldrich
T2 sequence (P02769 25-607): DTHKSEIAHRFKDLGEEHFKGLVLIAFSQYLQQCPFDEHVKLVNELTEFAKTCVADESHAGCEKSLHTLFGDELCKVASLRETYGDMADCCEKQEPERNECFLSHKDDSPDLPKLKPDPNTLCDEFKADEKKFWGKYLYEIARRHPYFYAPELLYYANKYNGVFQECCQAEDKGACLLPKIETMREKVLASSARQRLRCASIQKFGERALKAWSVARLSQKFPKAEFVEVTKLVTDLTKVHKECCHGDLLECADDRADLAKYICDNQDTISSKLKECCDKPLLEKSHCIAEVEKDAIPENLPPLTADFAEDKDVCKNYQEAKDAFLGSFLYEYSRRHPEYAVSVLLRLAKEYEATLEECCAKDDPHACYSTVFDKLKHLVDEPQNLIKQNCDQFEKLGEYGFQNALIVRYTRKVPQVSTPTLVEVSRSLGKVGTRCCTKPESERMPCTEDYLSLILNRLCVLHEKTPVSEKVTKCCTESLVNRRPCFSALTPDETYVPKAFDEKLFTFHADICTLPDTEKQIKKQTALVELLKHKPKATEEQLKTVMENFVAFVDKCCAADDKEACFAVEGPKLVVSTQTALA

[3] = HPLC on immobilized artificial membrane column (HPLCIAM); assay type: physicochemical; conditions: for log k IAM: Table S5, IAM column, pH 7.4; for k IAM: Table S5, retention factor, IAM column, phosphate buffer pH 7.4/acetonitrile 80:20; for kIAM / log kIAM: Table S9, external group
[4] = target: T2, bovine serum albumin (BSA); assay: RP TLC on plates impregnated with bovine serum albumin; assay type: binding; conditions: for RP (Rf, BSA-impregnated RP plate): Table S4, RP plate impregnated with 2 mg/mL BSA, pH 7.4 mobile phase; for RP (Rf value from the RP plate impregnated with 2 mg/mL BSA solution): Table S8, external group
From the text: Chromatographic descriptors were obtained in experiments, thin layer chromatography in normal (NP TLC) and reversed mode (RP TLC). The stationary phase was modified with bovine serum albumin (BSA). TLC was the source of retention factor (Rf) values, denoted in statistical models as NP and RP.
For TLC chromatography, glass plates 20 × 20 cm from Merck, covered with silica gel with the addition of a fluorescent indicator, were used. Normal phase (NP) plates were used with standard Merck TLC Silica gel 60 F254 plates, while in reverse phase (RP) silanized plates RP-2: Merck TLC Silica gel 60 RP-2 F254 were used.
The stationary phase of the plates, both NP and RP, was modified with an aqueous solution of bovine serum albumin purchased from Sigma Aldrich (bovine serum albumin, lyophilized powder).
The impregnation of the plates was carried out with a 2 mg/mL solution applied to the surface using a Desaga SG 1 hand sprayer; the plates were then air dried. […] Normal and reversed phase thin layer chromatography (NP TLC and RP TLC respectively) was performed using silica-gel-coated glass plates. Half of them were covered with 2 mg/mL bovine serum albumin solution and half remained pure.
The mobility of the compounds was also determined on the plates with no protein as a modifier. […] The acetate buffer (20 mM) was prepared by dissolving 1.54 g of ammonium acetate in 1 L of distilled water. The pH was then adjusted with a concentrated ammonia solution using a pH meter. The plates were developed in standard, vertical chromatographic chambers, each time using 100 mL of the mobile phase, after the chamber was previously saturated with solvent vapors for approximately 1 h.
The unfolded-protein-impregnated plates and the control plates were scanned with a Desaga CD 60 densitometer. The values of the delay factor (Rf) were collected, i.e., the ratio of the distance traveled by the substance to be analyzed to the distance traveled through the front of the mobile phase. […] The experiment was repeated (for both BSA-coated and control plates) and the Rf values pooled are the mean of both series of experiments.

[5] = ref DrugBank [7], cited from earlier work
[6] = target: T1, human serum albumin (HSA)
Method: as §1, §2, §3, §4

plasma protein = conditions: ref DrugBank [7], cited from earlier work
[7] = RP TLC on non-impregnated control plates; assay type: physicochemical; conditions: for CRP (Rf, control RP plate): Table S4, non-impregnated RP plate, acetonitrile/acetate buffer pH 7.4/methanol 60:20:20; for CRP (Rf value from the non-impregnated RP plate, control): Table S8, external group
[8] = NP TLC on non-impregnated control plates; assay type: physicochemical; conditions: for CNP (Rf, control NP plate): Table S3, non-impregnated NP plate, acetonitrile/acetate buffer pH 7.4/methanol 60:20:20; for CNP (Rf value from the non-impregnated NP plate, control): Table S8, external group
[9] = Table S6, external group (n = 38); cited from earlier work
[10] = Table S5, retention factor, HSA column, pH 7.4, 25 degrees Celsius
[11] = Table S1, plasma protein binding given as fraction
[12] = Table S6, external group, coded 1/0
[13] = Table S6, external group (n = 38), given as fraction
[14] = human, immobilized hsa column, pH 7.4

T1 sequence (P02768 25-609): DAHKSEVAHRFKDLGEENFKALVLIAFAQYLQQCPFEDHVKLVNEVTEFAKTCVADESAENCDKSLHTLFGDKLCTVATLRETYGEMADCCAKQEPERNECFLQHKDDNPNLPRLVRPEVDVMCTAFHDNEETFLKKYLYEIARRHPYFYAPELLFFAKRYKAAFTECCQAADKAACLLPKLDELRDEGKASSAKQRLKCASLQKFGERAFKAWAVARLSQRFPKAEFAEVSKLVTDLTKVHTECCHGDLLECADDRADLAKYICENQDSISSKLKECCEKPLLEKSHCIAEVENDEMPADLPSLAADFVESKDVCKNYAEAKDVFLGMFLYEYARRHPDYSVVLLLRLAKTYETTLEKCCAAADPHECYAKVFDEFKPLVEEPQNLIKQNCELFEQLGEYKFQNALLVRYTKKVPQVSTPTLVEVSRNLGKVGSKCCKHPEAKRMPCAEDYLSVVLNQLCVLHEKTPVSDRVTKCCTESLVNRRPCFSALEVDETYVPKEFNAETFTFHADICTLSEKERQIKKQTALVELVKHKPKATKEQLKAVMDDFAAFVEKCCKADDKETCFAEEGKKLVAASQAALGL

| Compound | chromatographic logD [1] | NP (Rf, BSA-impregnated NP plate) [2] | log k IAM [3] | k IAM [3] | RP (Rf, BSA-impregnated RP plate) [4] | CNS+/- ([5]; Table S1, coded 1/0) | k HSA [6, 10] | PB (plasma protein; [11]) | CRP (Rf, control RP plate) [7] | CNP (Rf, control NP plate) [8] | M/P [9] | NP (Rf value from the NP plate impregnated with 2 mg/mL BSA solution) [2] | kIAM [3] | log kIAM [3] | RP (Rf value from the RP plate impregnated with 2 mg/mL BSA solution) [4] | CNS+/- [5, 12] | kHSA ([6]; Table S9, external group) | PB (plasma protein; [13]) | CRP (Rf value from the non-impregnated RP plate, control) [7] | CNP (Rf value from the non-impregnated NP plate, control) [8] | further results |
| --- | --- | --- | --- | --- | --- | --- | --- | --- | --- | --- | --- | --- | --- | --- | --- | --- | --- | --- | --- | --- | --- |
| CN1CCC(=C2c3ccccc3CC(=O)c3sccc32)CC1 [ketotifen] | 0.77 | 0.36 | 1.34 | 22.04 | 0.74 | 1 | 5.83 | 0.75 | 0.75 | 0.34 |  |  |  |  |  |  |  |  |  |  |  |
| CCOC(=O)C1=C(C)NC(C)=C(C(=O)OC)C1c1cccc([N+](=O)[O-])c1 (stereo not drawn) [nitrendipine] |  |  |  |  |  |  |  |  |  |  | 0.30 | 0.97 | 2.98 | 0.47 | 0.86 | 0 | 3.55 | 0.99 | 0.86 | 0.97 | log kHSA ([6]; Table S9, external group): 0.55 |
| CN1C[C@H](C(=O)N[C@]2(C)O[C@@]3(O)[C@@H]4CCCN4C(=O)[C@H](Cc4ccccc4)N3C2=O)C[C@@H]2c3cccc4[nH]cc(c34)C[C@H]21 [dihydroergotamine] | -0.64 | 0.75 |  |  | 0.78 | 0 |  | 0.93 | 0.78 | 0.72 |  |  |  |  |  |  |  |  |  |  | k HSA ([6]; pH 7.4): 0.23 |
| CN1CCC[C@@H]1Cc1c[nH]c2ccc(CCS(=O)(=O)c3ccccc3)cc12 [eletriptan] |  |  |  |  |  |  |  |  |  |  | 0.25 |  | 3.57 | 0.55 |  | 1 | 3.78 |  |  |  | log kHSA [6, 14]: 0.58 |
| CC[C@@H](C(N)=O)N1CCCC1=O [levetiracetam] |  |  |  |  |  |  |  |  |  |  | 1.00 | 0.92 | 1.62 | 0.21 | 0.92 | 1 | 0.07 | 0.10 | 0.92 | 0.92 | log kHSA ([6]; Table S9, external group): -1.16 |
| CC[C@H]1OC(=O)[C@H](C)[C@@H](O[C@H]2C[C@@](C)(OC)[C@@H](O)[C@H](C)O2)[C@H](C)[C@@H](O[C@@H]2O[C@H](C)C[C@H](N(C)C)[C@H]2O)[C@](C)(O)C[C@@H](C)CN(C)[C@H](C)[C@@H](O)[C@]1(C)O [azithromycin] | -0.64 | 0.63 | -1.20 | 0.06 | 0.24 | 0 | 0.23 | 0.29 | 0.24 | 0.63 |  |  |  |  |  |  |  |  |  |  |  |
| CCCCN1CCCCC1C(=O)Nc1c(C)cccc1C (stereo not drawn) [bupivacaine] |  |  |  |  |  |  |  |  |  |  | 0.37 | 0.67 |  | 0.48 | 0.75 | 1 | 1.18 | 0.95 | 0.74 | 0.67 | log kHSA ([6]; Table S9, external group): 0.07 |
| CC(C)c1nc(N(C)S(C)(=O)=O)nc(-c2ccc(F)cc2)c1/C=C/[C@@H](O)C[C@@H](O)CC(=O)O [rosuvastatin] | 0.29 | 0.89 | -0.02 | 0.96 | 0.88 | 0 | 1.96 |  | 0.92 | 0.9 |  |  |  |  |  |  |  |  |  |  |  |
| CC(N)C12CC3CC(CC(C3)C1)C2 (stereo not drawn) [rimantadine] |  |  |  |  |  |  |  |  |  |  | 2.00 | 0.92 | 1.91 | 0.28 | 0.95 | 1 | 0.16 |  | 0.95 | 0.92 |  |
| CCCc1nn(C)c2c(=O)[nH]c(-c3cc(S(=O)(=O)N4CCN(C)CC4)ccc3OCC)nc12 [sildenafil] | 0.21 | 0.67 | 1.15 | 14.26 | 0.76 | 1 | 1.62 | 0.96 | 0.77 | 0.69 |  |  |  |  |  |  |  |  |  |  |  |
| O=C1CN=C(c2ccccn2)c2cc(Br)ccc2N1 [bromazepam] | -0.2 | 0.90 | 0.34 | 2.21 | 0.81 | 1 |  | 0.7 | 0.83 | 0.87 |  |  |  |  |  |  |  |  |  |  | k HSA ([6]; pH 7.4): 0.63 |
| OC(CNCC(O)C1CCc2cc(F)ccc2O1)C1CCc2cc(F)ccc2O1 (stereo not drawn) [nebivolol] | 0.87 | 0.75 |  |  | 0.40 | 1 | 7.49 | 0.98 | 0.40 | 0.75 |  |  |  |  |  |  |  |  |  |  |  |
| COC(=O)[C@@H]1CC2=CC(=O)CC[C@]2(C)[C@@]23O[C@@H]2C[C@@]2(C)[C@@H](CC[C@@]24CCC(=O)O4)[C@H]13 [eplerenone] | -0.68 | 0.94 | 0.19 | 1.54 | 0.85 | 1 | 0.21 | 0.5 | 0.84 | 0.94 |  |  |  |  |  |  |  |  |  |  |  |
| CN(C)CCC=C1c2ccccc2COc2ccccc21 [doxepin] |  |  |  |  |  |  |  |  |  |  | 1.37 | 0.31 | 2.81 | 0.45 | 0.54 | 1 | 4.25 | 0.76 |  | 0.30 | log kHSA [6, 14]: 0.63 |
| CO/N=C(\C(=O)N[C@@H]1C(=O)N2C(C(=O)O)=C(COC(N)=O)CS[C@H]12)c1ccco1 [cefuroxime] | -0.64 | 0.98 | 0.23 | 1.69 | 0.87 | 0 | 0.23 | 0.5 | 0.88 | 0.97 |  |  |  |  |  |  |  |  |  |  |  |
| NC(=O)N1c2ccccc2CC(=O)c2ccccc21 [oxcarbamazepine] |  |  |  |  |  |  |  |  |  |  | 0.50 | 0.90 | 2.26 | 0.35 | 0.91 | 1 | 0.40 | 0.40 | 0.91 | 0.91 | log kHSA ([6]; Table S9, external group): -0.40 |
| CN1CCC(=C2c3ccccc3C=Cc3ccccc32)CC1 [cyproheptadine] | 0.99 | 0.43 | 1.38 | 23.79 | 0.47 | 1 | 9.7 | 0.975 | 0.45 | 0.45 |  |  |  |  |  |  |  |  |  |  |  |
| Cc1ccc(S(=O)(=O)NC(=O)NN2CC3CCCC3C2)cc1 (stereo not drawn) [gliclazide] | 0.99 | 0.95 | -0.55 | 0.28 | 0.80 | 1 | 9.69 | 0.94 | 0.83 | 0.95 |  |  |  |  |  |  |  |  |  |  |  |
| CCC[C@@H]1C[C@@H](C(=O)N[C@@H]([C@H]2O[C@H](SC)[C@H](O)[C@@H](O)[C@H]2O)[C@@H](C)O)N(C)C1 [lincomycin] | -0.08 |  |  |  |  |  |  |  |  |  | 0.15 | 0.91 | 3.89 | 0.59 |  | 0 | 0.82 | 0.70 |  | 0.91 |  |
| CC[C@@H](CO)NCCN[C@@H](CC)CO [ethambutol] |  |  |  |  |  |  |  |  |  |  | 1.00 | 0.21 | 2.18 | 0.34 | 0.95 | 0 | 1.73 |  | 0.97 | 0.19 | log kHSA [6, 14]: 0.24 |
